From ChEMBL document CHEMBL1201862, “PubChem BioAssay data set” (2004)
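Protocol summary: plate cells (96-well), add compound at 5 concentrations, incubate 48 h, interpolate endpoints linearly. Here, GI50 denotes the concentration required for 50% inhibition of growth.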 Calls of active or inactive are those of the source. Cut-off read from the data, not from the text of the source: active = GI50 up to about 1.1 µM and inactive = higher.

Tests used:
Assay in all cases: NCI tumour cell line growth inhibition, 48 h
[1] = tested on: 786-0
[2] = tested on: A498
[3] = tested on: A549
[4] = tested on: ACHN
[5] = tested on: CAKI-1
[6] = tested on: CCRF-CEM
[7] = tested on: COLO 205
[8] = tested on: DLD-1
[9] = tested on: DMS-114
[10] = tested on: DMS-273
[11] = tested on: DU-145
[12] = tested on: EKVX
[13] = tested on: HCC 2998
[14] = tested on: HCT-116
[15] = tested on: HCT-15
[16] = tested on: HL-60
[17] = tested on: HOP-18
[18] = tested on: HOP-62
[19] = tested on: HOP-92
[20] = tested on: HT-29
[21] = tested on: Hs-578T
[22] = tested on: IGROV-1
[23] = tested on: K562
[24] = tested on: KM-20L2
[25] = tested on: KM12
[26] = tested on: LOX IMVI
[27] = tested on: LXFL 529
[28] = tested on: M14
[29] = tested on: M19-MEL
[30] = tested on: MCF7
[31] = tested on: MDA-MB-231
[32] = tested on: MDA-MB-435
[33] = tested on: MDA-N
[34] = tested on: MOLT-4
[35] = tested on: Malme-3M
[36] = tested on: NCI-H226
[37] = tested on: NCI-H23
[38] = tested on: NCI-H460
[39] = tested on: NCI-H522
[40] = tested on: NCI/ADR-RES
[41] = tested on: OVCAR-3
[42] = tested on: OVCAR-4
[43] = tested on: OVCAR-5
[44] = tested on: OVCAR-8
[45] = tested on: PC-3
[46] = tested on: RPMI-8226
[47] = tested on: RXF 393
[48] = tested on: RXF 631
[49] = tested on: SF-268
[50] = tested on: SF-295
[51] = tested on: SF-539
[52] = tested on: SK-MEL-28
[53] = tested on: SK-MEL-2
[54] = tested on: SK-MEL-5
[55] = tested on: SK-OV-3
[56] = tested on: SN12C
[57] = tested on: SNB-19
[58] = tested on: SNB-75
[59] = tested on: SR
[60] = tested on: SW-620
[61] = tested on: T47D
[62] = tested on: TK-10
[63] = tested on: U-251
[64] = tested on: UACC-257
[65] = tested on: UACC-62
[66] = tested on: UO-31
[67] = tested on: XF498
[68] = tested on: SNB-78

In the case of `COc1ccc(NC(=O)CC(=O)n2nc(-c3ccccc3)c(/N=N/c3ccccc3C)c2-c2ccccc2)cc1`, the GI50 [1] is reported as 18.5 µM (inactive), the GI50 [2] is reported as 21.5 µM (inactive) and the GI50 [3] is reported as 23.6 µM (inactive). For the same molecule, the GI50 [4] was 26.1 µM (inactive), the GI50 [5] was 17.3 µM (inactive) and the GI50 [6] was > 61.9 µM (inactive). The GI50 [7] was > 61.7 µM (inactive), the GI50 [8] was 21.6 µM (inactive) and the GI50 [9] was 24.3 µM (inactive). The GI50 [10] was 16.5 µM (inactive), the GI50 [11] was 45.8 µM (inactive) and the GI50 [12] was 16.3 µM (inactive). The GI50 [13] was > 78.7 µM (inactive), the GI50 [14] was 20.5 µM (inactive) and the GI50 [15] was 35.5 µM. For the same molecule, the GI50 [16] was 54.6 µM (inactive), the GI50 [17] was 42.5 µM (inactive) and the GI50 [18] was 15.9 µM (inactive). For the same molecule, the GI50 [19] was 15.6 µM (inactive), the GI50 [20] was 44.9 µM (inactive) and the GI50 [21] was 14.3 µM (inactive). For the same molecule, the GI50 [22] was 21.4 µM (inactive), the GI50 [23] was > 79.8 µM (inactive) and the GI50 [24] was > 100 µM (inactive). For the same molecule, the GI50 [25] was 53.3 µM (inactive), the GI50 [26] was 41 µM (inactive) and the GI50 [27] was 40 µM (inactive). For the same molecule, the GI50 [28] was 40.9 µM (inactive), the GI50 [29] was 51.8 µM (inactive) and the GI50 [30] was 35.3 µM (inactive). For the same molecule, the GI50 [31] was 71 µM (inactive), the GI50 [32] was > 100 µM (inactive) and the GI50 [33] was > 100 µM (inactive). For the same molecule, the GI50 [34] was > 64.1 µM (inactive), the GI50 [35] was 24.3 µM (inactive) and the GI50 [36] was 26 µM (inactive). For the same molecule, the GI50 [37] was 22.1 µM (inactive), the GI50 [38] was 22.4 µM (inactive) and the GI50 [39] was 23.6 µM (inactive). For the same molecule, the GI50 [40] was 29.6 µM (inactive), the GI50 [41] was 17.3 µM (inactive) and the GI50 [42] was 23.9 µM (inactive). For the same molecule, the GI50 [43] was > 100 µM (inactive), the GI50 [44] was 28 µM (inactive) and the GI50 [45] was 17.1 µM (inactive). The GI50 [46] was > 58.5 µM (inactive), the GI50 [47] was 17.3 µM (inactive) and the GI50 [48] was 33.7 µM (inactive). For the same molecule, the GI50 [49] was 17.9 µM (inactive), the GI50 [50] was 23.3 µM (inactive) and the GI50 [51] was 15.1 µM (inactive). For the same molecule, the GI50 [52] was > 41.7 µM (inactive), the GI50 [53] was 18.2 µM (inactive) and the GI50 [54] was 40.2 µM (inactive). The GI50 [55] was 19.9 µM (inactive), the GI50 [56] was 53.6 µM (inactive) and the GI50 [57] was 25.2 µM (inactive). The GI50 [58] was 18.7 µM (inactive), the GI50 [59] was 35.9 µM (inactive) and the GI50 [60] was 35.4 µM (inactive). For the same molecule, the GI50 [61] was 22.7 µM (inactive), the GI50 [62] was 24.7 µM (inactive) and the GI50 [63] was 16.4 µM (inactive). For the same molecule, the GI50 [64] was 64.1 µM (inactive), the GI50 [65] was 19.2 µM (inactive) and the GI50 [66] was 35.6 µM (inactive). For the same molecule, the GI50 [67] was 19.3 µM (inactive).
For `Cc1cccc(C(C)(C)C)c1NC(=O)C(=O)C(C(=O)/C=C\c1ccccc1)C1OC(=O)c2ccccc21` (centres undefined), the GI50 [1] was > 100 µM (inactive), the GI50 [2] was > 100 µM (inactive) and the GI50 [3] was > 100 µM (inactive). The GI50 [4] was > 100 µM (inactive), the GI50 [5] was > 100 µM (inactive) and the GI50 [6] was > 100 µM (inactive). The GI50 [7] was > 100 µM (inactive), the GI50 [8] was > 100 µM (inactive) and the GI50 [9] was > 100 µM (inactive). For the same molecule, the GI50 [12] was > 100 µM (inactive), the GI50 [13] was > 100 µM (inactive) and the GI50 [14] was > 100 µM (inactive). The GI50 [15] was over 100 µM, the GI50 [16] was > 100 µM (inactive) and the GI50 [17] was > 100 µM (inactive). For the same molecule, the GI50 [18] was > 100 µM (inactive), the GI50 [19] was > 100 µM (inactive) and the GI50 [20] was > 100 µM (inactive). The GI50 [22] was > 100 µM (inactive), the GI50 [23] was > 100 µM (inactive) and the GI50 [24] was > 100 µM (inactive). For the same molecule, the GI50 [25] was > 100 µM (inactive), the GI50 [26] was > 100 µM (inactive) and the GI50 [27] was > 100 µM (inactive). The GI50 [28] was > 100 µM (inactive), the GI50 [29] was > 100 µM (inactive) and the GI50 [34] was > 100 µM (inactive). For the same molecule, the GI50 [35] was > 100 µM (inactive), the GI50 [36] was > 100 µM (inactive) and the GI50 [37] was > 100 µM (inactive). For the same molecule, the GI50 [38] was > 100 µM (inactive), the GI50 [39] was > 100 µM (inactive) and the GI50 [41] was > 100 µM (inactive). The GI50 [42] was > 100 µM (inactive), the GI50 [43] was > 100 µM (inactive) and the GI50 [44] was > 100 µM (inactive). For the same molecule, the GI50 [46] was > 100 µM (inactive), the GI50 [47] was > 100 µM (inactive) and the GI50 [48] was > 100 µM (inactive). For the same molecule, the GI50 [49] was > 100 µM (inactive), the GI50 [50] was > 100 µM (inactive) and the GI50 [51] was > 100 µM (inactive). For the same molecule, the GI50 [52] was > 100 µM (inactive), the GI50 [54] was > 100 µM (inactive) and the GI50 [55] was > 100 µM (inactive). The GI50 [56] was > 100 µM (inactive), the GI50 [57] was > 100 µM (inactive) and the GI50 [58] was > 100 µM (inactive). For the same molecule, the GI50 [68] was > 100 µM (inactive), the GI50 [59] was > 100 µM (inactive) and the GI50 [60] was > 100 µM (inactive). For the same molecule, the GI50 [62] was > 100 µM (inactive), the GI50 [63] was > 100 µM (inactive) and the GI50 [64] was > 100 µM (inactive). The GI50 [65] was > 100 µM (inactive), the GI50 [66] was > 100 µM (inactive) and the GI50 [67] was > 100 µM (inactive).
